According to patent publication US20260048051A1, “TREATMENT OF INFLAMMATORY BOWEL DISEASE” (Atomwise Inc., priority 2024, published 2026):

Biological target: T1, TYK2-JH2 (Homo sapiens, UniProt P29597)
T1 construct: TYK JH2 enzyme mix (ChemPartner: CP20210818A-BV); purchased ChemPartner CP20210818A-BV
Test: TYK2-JH2 HTRF binding assay (ligand efficiency)
Details: calculated from binding-assay IC50 (Equation 1)
Experimental: The following example describes the TYK2-JH2 HTRF binding assay used to determine the ligand efficiency of the TYK2 inhibitors.
To calculate ligand efficiency, Equation 1 is applied: […]
in which IC50 comes from the binding assay used to determine compound potency.
TYK JH2 enzyme mix (ChemPartner: CP20210818A-BV), tracer (ChemPartner: CP-0029472-051) and mAb Anti-6HIS Tb cryptate Gold (Cisbio: Cat No. 61HI2TLA) mix were prepared in assay buffer (10 mM MgCl2, 20 mM HEPES pH 7.5, 0.01% Triton X-100, 1 mM DTT). Compounds diluted in DMSO (Final Concentrations 0.1 to 0.000005 [μM]) and enzyme mix (0.5 nM Final Concentration) were added to 384 well plates, briefly centrifuged and incubated at room temperature for 10 minutes. After incubation, tracer mix (Tracer-35 nM final concentration); (MAb Anti-6HIS Tb cryptate Gold-0.5× final)) was added, briefly centrifuged then incubate at room temperature 60 minutes. After incubation, plates were read by Envision TR-FRET (Ex340/Em495/520) protocol (PerkinElmer-Envision 2104 multilabel plate reader).

T1 sequence (P29597 589-875 limits assumed): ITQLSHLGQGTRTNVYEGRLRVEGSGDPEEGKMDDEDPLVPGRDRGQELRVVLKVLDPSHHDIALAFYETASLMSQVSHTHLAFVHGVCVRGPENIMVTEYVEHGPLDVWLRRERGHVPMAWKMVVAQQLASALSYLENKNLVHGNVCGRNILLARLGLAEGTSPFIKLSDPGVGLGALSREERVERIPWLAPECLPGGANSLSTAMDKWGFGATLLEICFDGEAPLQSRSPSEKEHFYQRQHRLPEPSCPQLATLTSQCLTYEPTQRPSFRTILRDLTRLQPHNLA

Row | Structure (SMILES) | Ligand Efficiency
1 | CS(=O)(=O)c1cccnc1Nc1cc(Nc2ncccc2F)ncn1 [Compound 64, N^4-(3-fluoropyridin-2-yl)-N^6-(3-(methylsulfonyl)pyridin-2-yl) pyrimidine-4,6-diamine] | ††† (†††: >0.39)
2 | COc1cnc(Nc2cc(Nc3ccc([C@H](C)N4CC5(COC5)C4)cn3)ncn2)c(S(C)(=O)=O)c1 [Compound 3, (S)—N^4-(5-(1-(2-oxa-6-azaspiro[3.3]heptan-6-yl)ethyl)pyridine-2-yl)-N^6-(5-methoxy-3-(methylsulfonyl)pyridin-2-yl)pyrimidine-4,6-diamine] | †† (††: 0.37-0.39)
3 | Cc1cnnc(Nc2cc(Nc3ccccc3C(N)=O)ncn2)c1 [Compound 47, 2-((6-((5-methylpyridazin-3-yl)amino)pyrimidin-4-yl)amino) benzamide] | ††† (†††: >0.39)
4 | Cc1ccnc(Nc2cc(Nc3ccccc3C(N)=O)ncn2)n1 [Compound 58, 2-(6-(4-methylpyrimidin-2-ylamino)pyrimidin-4-ylamino)benzamide] | ††† (†††: >0.39)
5 | Cc1cncc(Nc2cc(Nc3ccccc3C(N)=O)ncn2)n1 [Compound 49, 2-(6-(6-methylpyrazin-2-ylamino)pyrimidin-4-ylamino)benzamide] | ††† (†††: >0.39)
6 | Cc1cccc(Nc2cc(Nc3cnccc3C(N)=O)ncn2)n1 [Compound 61, 3-((6-((6-methylpyridin-2-yl)amino)pyrimidin-4-yl)amino) isonicotinamide] | ††† (†††: >0.39)
7 | CS(=O)(=O)c1ccccc1Nc1cc(Nc2ccc3c(n2)CCCC3N2CC3(CCOCC3)C2)ncn1 (stereo not shown) [Compound 27, N^4-(5-(7-oxa-2-azaspiro[3.5]nonan-2-yl)-5,6,7,8-tetrahydroquinolin-2-yl)-N^6-(2-(methylsulfonyl)phenyl)pyrimidine-4,6-diamine] | † (†: < 0.37)
8 | C[C@H](c1ccc(Nc2cc(Nc3ncccc3S(C)(=O)=O)ncn2)nc1)N1CCC2(CCOCC2)C1 [Compound 30, (R)—N^4-(5-(1-(8-oxa-2-azaspiro[4.5]decan-2-yl)ethyl)pyridin-2-yl)-N^6-(3-(methylsulfonyl)pyridin-2-yl)pyrimidine-4,6-diamine] | †† (††: 0.37-0.39)
9 | Cc1cccc(Nc2cc(Nc3ccccc3NS(C)(=O)=O)ncn2)n1 [Compound 53, N-(2-(6-(6-methylpyridin-2-ylamino)pyrimidin-4-ylamino)phenyl) methanesulfonamide] | ††† (†††: >0.39)
10 | C[C@@H](c1ccc(Nc2cc(Nc3ncccc3S(C)(=O)=O)ncn2)nc1)N1CCCC12CCOCC2 [Compound 29, (S)—N^4-(5-(1-(8-oxa-1-azaspiro[4.5]decan-1-yl)ethyl)pyridin-2-yl)-N^6-(3-(methylsulfonyl)pyridin-2-yl)pyrimidine-4,6-diamine] | †† (††: 0.37-0.39)
11 | CC(c1ccc(Nc2cc(Nc3ncccc3S(C)(=O)=O)ncn2)nc1)N1CC2(CC(F)C2)C1 (stereo in doubt) [Compound 10, N^4-(5-((1R)-1-(6-fluoro-2-azaspiro[3.3]heptan-2-yl)ethyl)pyridin-2-yl)-N^6-(3-(methylsulfonyl)pyridin-2-yl)pyrimidine-4,6-diamine] | ††† (†††: >0.39)
12 | Cc1cccc(Nc2cc(Nc3ccccc3S(C)(=O)=O)nc(C)n2)n1 [Compound 56, 2-methyl-N^4-(6-methylpyridin-2-yl)-N^6-(2-(methylsulfonyl)phenyl) pyrimidine-4,6-diamine] | † (†: < 0.37)
13 | CS(=O)(=O)c1cccnc1Nc1cc(Nc2ccc(N3CCC4(CCO4)CC3)cn2)ncn1 [Compound 24, N^4-(5-(1-oxa-7-azaspiro[3.5]nonan-7-yl)pyridin-2-yl)-N^6-(3-(methylsulfonyl)pyridin-2-yl)pyrimidine-4,6-diamine] | †† (††: 0.37-0.39)
14 | CC(c1ccc(Nc2cc(Nc3ncccc3S(C)(=O)=O)ncn2)nc1)N1CCCC1 (stereo in doubt) [Compound 15, (R)—N^4-(3-(methylsulfonyl)pyridin-2-yl)-N^6-(5-(1-(pyrrolidin-1-yl)ethyl)pyridin-2-yl)pyrimidine-4,6-diamine] | ††† (†††: >0.39)
15 | COc1ccnc(Nc2cc(Nc3cccc(C)n3)ncn2)c1S(C)(=O)=O [Compound 65, N^4-(4-methoxy-3-(methylsulfonyl)pyridin-2-yl)-N^6-(6-methylpyridin-2-yl)pyrimidine-4,6-diamine] | ††† (†††: >0.39)
16 | C[C@H]1CN(C)CCN1c1ccc(Nc2cc(Nc3ncccc3S(C)(=O)=O)ncn2)nc1 [Compound 20, (S)—N^4-(5-(2,4-dimethylpiperazin-1-yl)pyridin-2-yl)-N^6-(3-(methylsulfonyl)pyridin-2-yl)pyrimidine-4,6-diamine] | ††† (†††: >0.39)

Row | Structure (SMILES) | Ligand Efficiency
17 | CS(=O)(=O)c1ccccc1Nc1cc(Nc2ccc(C(=O)NC3COC3)cn2)ncn1 [Compound 79, 6-((6-((2-(methylsulfonyl)phenyl)amino)pyrimidin-4-yl)amino)-N-(oxetan-3-yl)nicotinamide] | †† (††: 0.37-0.39)
18 | CS(=O)(=O)c1ccccc1Nc1cc(Nc2ccc(C3(NC4COC4)CC3)cn2)ncn1 [Compound 41, N^4-(2-(methylsulfonyl)phenyl)-N^6-(5-(1-(oxetan-3-ylamino)cyclopropyl)pyridin-2-yl)pyrimidine-4,6-diamine] | †† (††: 0.37-0.39)
19 | CC(NC1CCOC1)c1ccc(Nc2cc(Nc3ccccc3S(C)(=O)=O)ncn2)nc1 (stereo not shown) [Compound 26, N^4-(2-(methylsulfonyl)phenyl)-N^6-(5-(1-(tetrahydrofuran-3-ylamino)ethyl)pyridin-2-yl)pyrimidine-4,6-diamine] | †† (††: 0.37-0.39)
20 | CC(C)(NC1COC1)c1ccc(Nc2cc(Nc3ccccc3S(C)(=O)=O)ncn2)nc1 [Compound 39, N^4-(2-(methylsulfonyl)phenyl)-N^6-(5-(2-(oxetan-3-ylamino)propan-2-yl)pyridin-2-yl)pyrimidine-4,6-diamine] | †† (††: 0.37-0.39)
21 | C[C@@H](c1ccc(Nc2cc(Nc3ncccc3S(C)(=O)=O)ncn2)nc1)N1CC2(CCOC2)C1 [Compound 32, (S)—N^4-(5-(1-(6-oxa-2-azaspiro[3.4]octan-2-yl)ethyl)pyridin-2-yl)-N^6-(3-(methylsulfonyl)pyridin-2-yl)pyrimidine-4,6-diamine] | ††† (†††: >0.39)
22 | CC(c1ccc(Nc2cc(Nc3ncc(C4COC4)cc3S(C)(=O)=O)ncn2)nc1)N1CC2(COC2)C1 (stereo not shown) [Compound 78, N^4-(5-(1-(2-oxa-6-azaspiro[3.3]heptan-6-yl)ethyl)pyridin-2-yl)-N^6-(3-(methylsulfonyl)-5-(oxetan-3-yl)pyridin-2-yl)pyrimidine-4,6-diamine] | † (†: < 0.37)
23 | Cc1cccc(Nc2cc(Nc3ccncc3C(N)=O)ncn2)n1 [Compound 51, 4-((6-((6-methylpyridin-2-yl)amino)pyrimidin-4-yl)amino) nicotinamide] | ††† (†††: >0.39)
24 | CC(C)[C@@H](c1ccc(Nc2cc(Nc3ncccc3S(C)(=O)=O)ncn2)nc1)N1CC2(COC2)C1 [Compound 13, (S)—N^4-(5-(2-methyl-1-(2-oxa-6-azaspiro[3.3]heptan-6-yl)propyl)pyridine-2-yl)-N^6-(3-(methylsulfonyl)pyridin-2-yl)pyrimidine-4,6-diamine] | †† (††: 0.37-0.39)
25 | CS(=O)(=O)c1cccnc1Nc1cc(Nc2cccc(C(F)(F)F)n2)ncn1 [Compound 19, N^4-(3-(methylsulfonyl)pyridin-2-yl)-N^6-(6-(trifluoromethyl)pyridin-2-yl)pyrimidine-4,6-diamine] | ††† (†††: >0.39)
26 | Cc1ccnc(Nc2cc(Nc3ccccc3C(N)=O)ncn2)c1 [Compound 45, 2-((6-((4-methylpyridin-2-yl)amino)pyrimidin-4-yl)amino) benzamide] | ††† (†††: >0.39)
27 | C[C@H]1COCCN1c1ccc(Nc2cc(Nc3ccccc3S(C)(=O)=O)ncn2)nc1 [Compound 54, (S)—N^4-(5-(3-methylmorpholino)pyridin-2-yl)-N^6-(2-(methylsulfonyl)phenyl)pyrimidine-4,6-diamine] | † (†: < 0.37)
28 | Cc1cccnc1Nc1cc(Nc2ccccc2C(N)=O)ncn1 [Compound 68, 2-((6-((3-methylpyridin-2-yl)amino)pyrimidin-4-yl)amino) benzamide] | ††† (†††: >0.39)
29 | Cc1cccc(Nc2cc(Nc3ccncc3S(C)(=O)=O)ncn2)n1 [Compound 60, N^4-(6-methylpyridin-2-yl)-N^6-(3-(methylsulfonyl)pyridin-4-yl) pyrimidine-4,6-diamine] | ††† (†††: >0.39)
30 | COc1ccc(Nc2cc(NC(=O)C3CC3)ncn2)c(C(N)=O)c1 [Compound 70, 2-((6-(cyclopropanecarboxamido)pyrimidin-4-yl)amino)-5-methoxy benzamide] | ††† (†††: >0.39)
31 | Cc1cc(Nc2cc(Nc3ncccc3S(C)(=O)=O)ncn2)nnc1C(C)N1CC2(COC2)C1 (stereo not shown) [Compound 77, N^4-(6-(1-(2-oxa-6-azaspiro[3.3]heptan-6-yl)ethyl)-5-methylpyridazin-3-yl)-N^6-(3-(methylsulfonyl)pyridin-2-yl)pyrimidine-4,6-diamine] | †† (††: 0.37-0.39)
